Measurements as given in patent US8710043B2, “TRPM8 antagonists and their use in treatments” (Amgen Inc., priority 2011, dated 2014).

biological target: T1, human TRPM8 (Homo sapiens, UniProt Q7Z2W7); assay: Luminescence readout assay for measuring intracellular calcium, icilin activation; format: cell-based; conditions: CHO cells expressing human TRPM8, aequorin luminescence, 1 μM icilin activation; read-out: hTRPM8 IC50
T1 construct: expressed in transfected cells; host or cells: Chinese hamster ovary (CHO) cells, T-REx tetracycline-inducible system, co-transfected with aequorin
T1 sequence (Q7Z2W7 whole entry): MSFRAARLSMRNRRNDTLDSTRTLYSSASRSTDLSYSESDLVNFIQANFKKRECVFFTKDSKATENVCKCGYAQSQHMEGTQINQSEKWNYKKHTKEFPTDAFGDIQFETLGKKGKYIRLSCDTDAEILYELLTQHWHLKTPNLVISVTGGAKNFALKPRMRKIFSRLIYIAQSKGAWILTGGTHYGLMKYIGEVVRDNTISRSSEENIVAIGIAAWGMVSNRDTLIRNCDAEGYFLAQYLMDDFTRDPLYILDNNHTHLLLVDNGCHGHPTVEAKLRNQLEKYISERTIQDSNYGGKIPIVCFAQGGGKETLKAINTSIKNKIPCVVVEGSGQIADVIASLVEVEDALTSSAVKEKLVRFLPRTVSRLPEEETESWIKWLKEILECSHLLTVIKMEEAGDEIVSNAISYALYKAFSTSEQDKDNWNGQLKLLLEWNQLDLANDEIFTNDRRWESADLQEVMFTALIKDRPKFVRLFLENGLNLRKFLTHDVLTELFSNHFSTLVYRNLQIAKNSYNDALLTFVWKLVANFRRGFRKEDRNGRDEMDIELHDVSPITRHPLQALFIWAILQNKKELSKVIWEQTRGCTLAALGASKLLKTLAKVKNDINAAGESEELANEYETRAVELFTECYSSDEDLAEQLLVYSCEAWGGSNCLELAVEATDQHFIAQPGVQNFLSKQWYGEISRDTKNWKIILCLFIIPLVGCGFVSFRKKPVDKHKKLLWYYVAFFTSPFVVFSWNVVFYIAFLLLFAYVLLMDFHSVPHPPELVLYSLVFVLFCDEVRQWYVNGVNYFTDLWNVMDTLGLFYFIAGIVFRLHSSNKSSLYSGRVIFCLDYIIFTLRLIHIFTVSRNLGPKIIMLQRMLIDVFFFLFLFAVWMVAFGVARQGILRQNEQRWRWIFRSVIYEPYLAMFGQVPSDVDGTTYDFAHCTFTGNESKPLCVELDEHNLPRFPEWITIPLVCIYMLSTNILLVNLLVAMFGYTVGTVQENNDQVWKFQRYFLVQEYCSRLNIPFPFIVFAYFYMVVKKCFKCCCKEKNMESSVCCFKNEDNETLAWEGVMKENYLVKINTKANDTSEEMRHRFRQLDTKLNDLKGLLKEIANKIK
Experimental: Luminescence Readout Assay for Measuring Intracellular Calcium.
A stable Chinese hamster ovary cell line expressing human TRPM8 was generated using tetracycline inducible T-REx™ expression system from Invitrogen, Inc. (Carlsbad, Calif.). […] Twenty four hours before the assay, cells were seeded in 96-well plates and TRPM8 expression was induced with 0.5 μg/mL tetracycline. […] Potential antagonists were added 2.5 min prior to the addition of agonist, 1 μM icilin, 100 μM L-menthol, or 1 min prior to the addition of cold buffer (<10° C.). The luminescence was measured by a CCD camera based FLASH-luminometer built by Amgen, Inc. A cooling device attached to FLASH luminometer was used for cold activation.

IC50	SMILES
39.2 nM	Cc1cccnc1[C@@H](NC(=O)c1ccc(=O)n(C)c1)c1ccc(C(F)(F)F)cc1 [Example 83, (S)-1-methyl-N-((3-methylpyridin-2-yl)(4-(trifluoromethyl)phenyl)methyl)-6-oxo-1,6-dihydropyridine-3-carboxamide 2,2,2-trifluoroacetate]
5.3 nM	Cc1cccnc1[C@@H](NC(=O)c1ccc2oc(=O)[nH]c2c1)c1ccc(C(F)(F)F)cc1 [Example 84, (S)-N-((3-methylpyridin-2-methyl)phenyl)yl)(4-(trifluoromethyl)-2-oxo-2,3-dihydrobenzo[d]oxazole-5-carboxamide]
28.9 nM	Cc1cccnc1[C@@H](NC(=O)c1ccc2c(c1)OCC(=O)N2)c1ccc(C(F)(F)F)cc1 [Example 85, (S)-N-((3-methylpyridin-2-yl)(4-(trifluoromethyl)phenyl)methyl)-3-oxo-3,4-dihydro-2H-benzo[b][1,4]oxazine-7-carboxamide]
10.2 nM	O=C(N[C@@H](c1ccc(C(F)(F)F)cc1)c1ncccc1F)c1ccn2ccnc2c1 [Example 86, (S)-N-((3-fluoropyridin-2-yl)(4-(trifluoromethyl)phenyl)methyl)imidazo[1,2-a]pyridine-7-carboxamide]
8.9 nM	O=C(N[C@@H](c1ccc(C(F)(F)F)cc1)c1ncccc1C(F)(F)F)c1ccn2ccnc2c1 [Example 87, (S)-N-((4-(trifluoromethyl)phenyl)(3-(trifluoromethyl)pyridin-2-yl)methyl)imidazo[1,2-a]pyridine-7-carboxamide]
12.1 nM	O=C(N[C@@H](c1ccc(OC(F)(F)F)cc1)c1ncccc1F)c1ccn2ccnc2c1 [Example 88, (S)-N-((3-fluoropyridin-2-yl)(4-(trifluoromethoxy)phenyl)methyl)imidazo[1,2-a]pyridine-7-carboxamide]
10.3 nM	O=C(N[C@@H](c1ccc(OC(F)(F)F)cc1)c1ncccc1F)c1ccc2nccn2c1 [Example 89]
6.2 nM	O=C1Cc2ccc(C(=O)N[C@@H](c3ccc(OC(F)(F)F)cc3)c3ncccc3F)cc2N1 [Example 90, (S)-N-((3-fluoropyridin-2-yl)(4-(trifluoromethoxy)phenyl)methyl)-2-oxoindoline-6-carboxamide]
10.3 nM	CC#Cc1cccnc1[C@@H](NC(=O)c1ccc(=O)[nH]c1)c1ccc(C(F)(F)F)cc1 [Example 92, (S)-6-oxo-N-((3-(prop-1-yn-1-yl)pyridin-2-yl)(4-(trifluoromethyl)phenyl)methyl)-1,6-dihydropyridine-3-carboxamide]
17.8 nM	CC#Cc1cccnc1[C@@H](NC(=O)c1ccc2ncccc2c1)c1ccc(C(F)(F)F)cc1 [Example 93, (S)-N-((3-(prop-1-yn-1-yl)pyridin-2-yl)(4-(trifluoromethyl)phenyl)methyl)quinoline-6-carboxamide]
41.4 nM	O=C(N[C@@H](c1ccc(C(F)(F)F)cc1)c1ncccc1C(F)(F)F)c1ccc2c(c1)C(=O)NC2=O [Example 94, (S)-1,3-dioxo-N-((4-(trifluoromethyl)phenyl)(3-(trifluoromethyl)pyridin-2-yl)methyl)isoindoline-5-carboxamide]
57.2 nM	CC#Cc1cccnc1[C@@H](NC(=O)c1ccc(OC)cc1)c1ccc(C(F)(F)F)cc1 [Example 95, (S)-4-methoxy-N-((3-(prop-1-yn-1-yl)pyridin-2-yl)(4-(trifluoromethyl)phenyl)methyl)benzamide 2,2,2-trifluoroacetate]
37.6 nM	CC#Cc1cccnc1[C@@H](NC(=O)c1ccc(OC)nc1)c1ccc(C(F)(F)F)cc1 [Example 96, (S)-6-methoxy-N-((3-(prop-1-yn-1-yl)pyridin-2-yl)(4-(trifluoromethyl)phenyl)methyl)nicotinamide]
119 nM	CC#Cc1cccnc1[C@@H](NC(=O)c1ccc2cccnc2c1)c1ccc(C(F)(F)F)cc1 [Example 97, (S)-N-((3-(prop-1-yn-1-yl)pyridin-2-yl)(4-(trifluoromethyl)phenyl)methyl)quinoline-7-carboxamide 2,2,2-trifluoroacetate]
125 nM	CC#Cc1cccnc1[C@@H](NC(=O)c1ccccc1)c1ccc(C(F)(F)F)cc1 [Example 98, (S)-N-((3-(prop-1-yn-1-yl)pyridin-2-yl)(4-(trifluoromethyl)phenyl)methyl)benzamide]
129 nM	O=C(N[C@@H](c1ccc(C(F)(F)F)cc1)c1ncccc1C(F)(F)F)c1ccc2c(c1)C(=O)N(c1ccccn1)C2=O [Example 99, (S)-1,3-dioxo-2-(pyridin-2-yl)-N-((4-(trifluoromethyl)phenyl)(3-(trifluoromethyl)pydin-2-yl)methyl)isoindoline-5-carboxamide 2,2,2-trifluoroacetate]

IC50	SMILES
61.5 nM	O=C(N[C@@H](c1ccc(C(F)(F)F)cc1)c1ncccc1C(F)(F)F)c1ccc(C(=O)O)c(Br)c1 [Example 100, (S)-2-bromo-4-(((4-(trifluoromethyl)phenyl)(3-(trifluoromethyl)pyridin-2-yl)methyl)carbamoyl)benzoic acid]
395 nM	CC1(C#Cc2cccnc2[C@@H](NC(=O)c2ccc3ncccc3c2)c2ccc(C(F)(F)F)cc2)COC1 [Example 101, (S)-N-((3-((3-methyloxetan-3-yl)ethynyl)pyridin-2-yl)(4-(trifluoromethyl)phenyl)methyl)quinoline-6-carboxamide 2,2,2-trifluoroacetate]
6.2 nM	O=C(N[C@@H](c1ccc(C(F)(F)F)cc1)c1ncccc1F)c1ccc2[nH]c(=O)ccc2c1 [Example 104, (S)-N-((3-fluoropyridin-2-yl)(4-(trifluoromethyl)phenyl)methyl)-2-oxo-1,2-dihydroquinoline-6-carboxamide]
10.8 nM	O=C(N[C@@H](c1ccc(C(F)(F)F)cc1)c1ncccc1F)c1ccc2c(O)ccnc2c1 [Example 105, (S)-N-((3-fluoropyridin-2-yl)(4-(trifluoromethyl)phenyl)methyl)-4-hydroxyquinoline-7-carboxamide 2,2,2-trifluoroacetate]
8.9 nM	O=C(N[C@@H](c1ccc(C(F)(F)F)cc1)c1ncccc1C(F)(F)F)c1ccc2c(O)ccnc2c1 [Example 106, (S)-4-hydroxy-N-((4-(trifluoromethyl)phenyl)(3-(trifluoromethyl)pyridin-2-yl)methyl)quinoline-7-carboxamide 2,2,2-trifluoroacetate]
24.1 nM	O=C(N[C@@H](c1ccc(C(F)(F)F)c(F)c1)c1ncccc1C(F)(F)F)c1ccc2nccnc2c1 [Example 108, (S)-N-((3-fluoro-4-(trifluoromethyl)phenyl)(3-(trifluoromethyl)pyridin-2-yl)methyl)quinoxaline-6-carboxamide]
63.9 nM	O=C(N[C@@H](c1ccc(C(F)(F)F)cc1)c1ncccc1C(F)(F)F)c1ccc2nccc(O)c2c1 [Example 109, (S)-4-hydroxy-N-((4-(trifluoromethyl)phenyl)(3-(trifluoromethyl)pyridin-2-yl)methyl)quinoline-6-carboxamide 2,2,2-trifluoroacetate]
64.4 nM	O=C(N[C@@H](c1ccc(C(F)(F)F)cc1)c1ncccc1C(F)(F)F)c1ccc2c(Cl)ccnc2c1 [Example 110, (S)-4-chloro-N-((4-(trifluoromethyl)phenyl)(3-(trifluoromethyl)pyridin-2-yl)methyl)quinoline-7-carboxamide 2,2,2-trifluoroacetate]
55.9 nM	O=C(N[C@@H](c1ccc(C(F)(F)F)c(F)c1)c1ncccc1C(F)(F)F)c1cnccn1 [Example 111, (S)-N-((3-fluoro-4-(trifluoromethyl)phenyl)(3-(trifluoromethyl)pyridin-2-yl)methyl)pyrazine-2-carboxamide]
84.4 nM	O=C(N[C@@H](c1ccc(C(F)(F)F)c(F)c1)c1ncccc1C(F)(F)F)c1ccccn1 [Example 112, (S)-N-((3-fluoro-4-(trifluoromethyl)phenyl)(3-(trifluoromethyl)pyridin-2-yl)methyl)picolinamide]
31.1 nM	O=C(N[C@@H](c1ccc(C(F)(F)F)cc1)c1ncccc1F)c1ccc2nccc(Cl)c2c1 [Example 113, (S)-4-chloro-N-((3-fluoropyridin-2-yl)(4-(trifluoromethyl)phenyl)methyl)quinoline-6-carboxamide 2,2,2-trifluoroacetate]
50.6 nM	O=C(N[C@@H](c1ccc(C(F)(F)F)cc1)c1ncccc1F)c1ccc2nccc(O)c2c1 [Example 114, (S)-N-((3-fluoropyridin-2-yl)(4-(trifluoromethyl)phenyl)methyl)-4-hydroxyquinoline-6-carboxamide 2,2,2-trifluoroacetate]
56.2 nM	CCc1ccc([C@H](NC(=O)c2ccc3cccnc3c2)c2ncccc2C(F)(F)F)cc1 [Example 115, (S)-N-((4-ethylphenyl)(3-(trifluoromethyl)pyridin-2-yl)methyl)quinoline-7-carboxamide]
42.9 nM	O=C(N[C@@H](c1ccc(C(F)(F)F)cc1)c1ncccc1C(F)(F)F)c1ccc2nccc(Cl)c2c1 [Example 116, (S)-4-chloro-N-((4-(trifluoromethyl)phenyl)(3-(trifluoromethyl)pyridin-2-yl)methyl)quinoline-6-carboxamide 2,2,2-trifluoroacetate]
70 nM	O=C(N[C@@H](c1ccc(C(F)(F)F)cc1)c1ncccc1C(F)(F)F)c1cccc(I)c1 [Example 117, (S)-3-iodo-N-((4-(trifluoromethyl)phenyl)(3-(trifluoromethyl)pyridin-2-yl)methyl)benzamide]
90.5 nM	O=C(N[C@@H](c1ccc(C(F)(F)F)cc1)c1ncccc1C(F)(F)F)c1ccccc1I [Example 118, (S)-2-iodo-N-((4-(trifluoromethyl)phenyl)(3-(trifluoromethyl)pyridin-2-yl)methyl)benzamide]
